# Measurements reported in patent publication US20070225371A1, “Dermatological composition containing alkyl ureas” (priority 2006, published 2007).
# Tests used:
# RNase A = target: T1, RNase A (Bos taurus, UniProt P61823); assay: Thermal denaturation of protein RNase A in urea or 1-butyl urea solution (Poklar et al.); format: biochemical; conditions: for 0.7 M of 1-butyl urea; estimated from temperature profiles of conformational transition of RNase A
# T1 sequence (P61823 27-150): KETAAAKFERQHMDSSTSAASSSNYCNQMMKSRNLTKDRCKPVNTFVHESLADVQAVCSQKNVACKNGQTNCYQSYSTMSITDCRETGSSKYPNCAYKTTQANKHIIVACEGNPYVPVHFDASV
# Source text: In their thermal denaturation studies of protein RNase A in alkyl urea solutions, Poklar et al., “Thermodynamic Stability of Ribonuclease A in Alkylurea Solutions and Preferential Solvation Changes Accompanying its Thermal Denaturation: A Calorimetric and Spectroscopic Study” in Protein Science, 8:832-840 (1999) report that the thermal stability of RNase A in solution decreases with increasing concentrations of denaturants and the size of the hydrophobic group substituted on the urea molecule.
# Based on the temperature profiles of conformational transition (denaturation) of protein RNase A in urea or in 1-butyl urea solution, it can be estimated that 0.7 M of 1-butyl urea is equivalent to about 3.5 M of urea in terms of their protein denaturing capability. These studies provide a general guideline on estimating relative keratolytic activity of urea vs. 1-butyl urea in a dermatological composition.
# [1] = equal to about 36 to 42% by weight; cited from earlier work
urea concentration equivalent in protein denaturing capability (RNase A),SMILES,concentration minimally needed to show any noticeable keratolytic or protein denaturing activity [1]
about 3.5 M,CCCCNC(N)=O [1-butyl urea],–
–,NC(N)=O [urea],6 to 7 M
